Where two headings read alike, the source gives them in different places. Where a SMILES comes first, the peptide text is derived from it. Bridges are numbered along the chain shown (N, C = ends). Roman numbers before positions name the chains, in order. [ ]: non-standard residue; d: D form. Hyp = O=C(O)[C@@H]1C[C@@H](O)CN1; Tle = CC(C)(C)[C@H](N)C(=O)O; dDab = NCC[C@@H](N)C(=O)O; hCys = N[C@@H](CCS)C(=O)O; Nle = CCCC[C@H](N)C(=O)O; Orn = NCCC[C@H](N)C(=O)O; Dab = NCC[C@H](N)C(=O)O; dAze = O=C(O)[C@H]1CCN1; Dap = NC[C@H](N)C(=O)O; Sar = CNCC(=O)O
Tests used:
Format in all cases: cell-based
[1] = tested on: human red blood cells (hRBC); assay: Hemolysis of human red blood cells; conditions: red cells of human, 1 h
Protocol: (§1) Lyophilized peptides were weighed on a Microbalance (Mettler MT5) and dissolved in sterile water to a final concentration of 1 mg/mL. Stock solutions were kept at +4° C., light protected.
The peptides were tested for their hemolytic activity against human red blood cells (hRBC). Fresh hRBC were washed three times with phosphate buffered saline (PBS) and centrifuged for 10 min at 2000×g. Compounds (100 μg/mL) were incubated with 20% hRBC (v/v) for 1 h at 37° C. and shaking at 300 rpm. The final erythrocyte concentration was approximately 0.9×10^9 cells/mL. A value of 0% and 100% cell lyses, respectively, was determined by incubation of hRBC in the presence of PBS containing 0.001% acetic acid and 2.5% Triton X-100 in H2O, respectively. The samples were centrifuged, the supernatants were 8-fold diluted in PBS buffer and the optical densities (OD) were measured at 540 nm. The 100% lyses value (OD540H2O) gave an OD540 of approximately 0.5-1.0.
Percent hemolysis was calculated as follows: (OD540peptide/OD540H2O)×100%.

[2] = tested on: Klebsiella pneumoniae 968733
Protocol: as §1
(§2) The in vitro antimicrobial activities of the peptides were determined in 96-well plates (Greiner, polystyrene) by the standard CLSI broth microdilution method (Clinical and Laboratory Standards Institute 2014. Performance standards for antimicrobial susceptibility testing, 24th informational supplement. Approved standard CLSI M100-S24; Clinical and Laboratory Standards Institute, Wayne, Pa.). Inocula of the microorganisms were diluted into Mueller-Hinton II (MH-cation adjusted) broth and compared with a 0.5 McFarland standard to give appr. 10^6 colony forming units (CFU)/mL. Aliquots (90 μL) of inoculate were added to 10 μL of MH-II broth+P-80 (Polysorbate 80, 0.002% final concentration, v/v) containing the peptide in serial two-fold dilutions. The following microorganisms were used to determine antibiotic activity of the peptides: Escherichia coli ATCC 25922, Klebsiella pneumoniae SSI #3010^a), Acinetobacter baumannii DSM 30008, Pseudomonas aeruginosa ATCC 27853 and the clinical isolates Escherichia coli 926415^b), Klebsiella pneumoniae 968733^b) and Acinetobacter baumannii 872842^b). Antimicrobial activities of the peptides were expressed as the minimal inhibitory concentration (MIC) in μg/mL at which no visible growth was observed after 18-20 hours of incubation at 35° C. ^a) Obtained from Statens Serum Institut (SSI), Copenhagen, Denmark^b) Obtained from International Health Management Associates, Inc. (IHMA Europe Sàrl), Epalinges, Switzerland

[3] = tested on: Acinetobacter baumannii DSM 30008; conditions: DSM 30008
Protocol: as §1, §2

Escherichia coli 926415 = tested on: Escherichia coli 926415
Protocol: as §1, §2

[4] = tested on: Klebsiella pneumoniae SSI #3010; conditions: SSI #3010
Protocol: as §1, §2

[5] = tested on: Pseudomonas aeruginosa ATCC 27853; conditions: ATCC 27853
Protocol: as §1, §2

[6] = tested on: Acinetobacter baumannii 872842
Protocol: as §1, §2

[7] = tested on: Escherichia coli ATCC 25922; conditions: ATCC 25922
Protocol: as §1, §2

[8] = clinical isolate, Mueller-Hinton II broth, P-80 0.002% present
[9] = clinical isolate, Mueller-Hinton II broth, measured in absence of P-80

Row | Compound | Hemolysis at 100 μg/mL ([1]; 100 μg/mL) [%] | Klebsiella pneumoniae 968733 MIC [2]; 968733 [µg/mL] | Acinetobacter baumannii DSM 30008 MIC [3] [µg/mL] | Escherichia coli 926415 MIC (Escherichia coli 926415; 926415) [µg/mL] | Klebsiella pneumoniae SSI #3010 MIC [4] [µg/mL] | Pseudomonas aeruginosa ATCC 27853 MIC [5] [µg/mL] | Acinetobacter baumannii 872842 MIC [6]; 872842 [µg/mL] | Klebsiella pneumoniae 968733 MIC [2, 8] [µg/mL] | Klebsiella pneumoniae 968733 MIC [2, 9] [µg/mL] | Escherichia coli 926415 MIC (Escherichia coli 926415; [8]) [µg/mL] | Escherichia coli 926415 MIC (Escherichia coli 926415; [9]) [µg/mL] | Acinetobacter baumannii 872842 MIC [6, 8] [µg/mL] | Acinetobacter baumannii 872842 MIC [6, 9] [µg/mL] | Hemolysis at 100 μg/mL [1]; 100 [%] | Escherichia coli ATCC 25922 MIC [7] [µg/mL]
1 | CCCC[C@@H]1NC(=O)[C@@H]2CCCN2C(=O)[C@H]2CCCN2C(=O)[C@H]([C@@H](C)O)NC(=O)[C@H](CN)NC(=O)[C@H](C(C)(C)C)NC(=O)[C@@H](NC(=O)[C@H](Cc2c[nH]c3ccccc23)NC(C)=O)CSSC[C@@H](C(=O)N[C@@H](CCN)C(=O)N[C@H](C(=O)N[C@@H](CCN)C(=O)N[C@H]2CCNC(=O)[C@H]([C@@H](C)O)NC(=O)[C@H](CCN)NC(=O)[C@H](CCN)NC(=O)[C@H](CC(C)C)NC(=O)[C@@H](Cc3ccccc3)NC(=O)[C@H](CCN)NC2=O)[C@@H](C)O)NC(=O)[C@H](Cc2ccc(O)cc2)NC(=O)CNC1=O [Ex. 19] (Ac-WC[Tle][Dap]T[dP]P[Nle]GYC[Dab]T[Dab][Dab][Dab][dF]L[Dab][Dab]T; disulfide 2-11; lactam 15-C) | <1 | 0.75 | 0.25 | 0.25 | 1 | 1 | 0.75 | – | – | – | – | – | – | – | –
2 | colistin [reference compound] | – | – | – | – | – | – | – | >8 | 16 | 8 | 16 | >8 | 64 | – | –
3 | CCCC[C@@H]1NC(=O)[C@@H]2CCCN2C(=O)[C@H]2CCCN2C(=O)[C@H](CO)NC(=O)[C@H](C)NC(=O)[C@H](C(C)(C)C)NC(=O)[C@@H](NC(=O)[C@@H](N)Cc2c[nH]c3ccccc23)CCNC(=O)C[C@@H](C(=O)N[C@@H](CCCN)C(=O)N[C@@H](CCN)C(=O)N[C@H]2CCNC(=O)[C@H]([C@@H](C)O)NC(=O)[C@H](CCN)NC(=O)[C@H](CCN)NC(=O)[C@H](CC(C)C)NC(=O)[C@@H](Cc3ccccc3)NC(=O)[C@H](CCN)NC2=O)NC(=O)[C@H](Cc2ccc(O)cc2)NC(=O)[C@H](CO)NC1=O [Ex. 190] (H-W[Dab][Tle]AS[dP]P[Nle]SYD[Orn][Dab][Dab][Dab][dF]L[Dab][Dab]T; lactam 2-11, 14-C) | – | – | 0.5 | – | 0.5 | 1 | – | – | – | – | – | – | – | <1 | 0.5
4 | CC(C)C[C@@H]1NC(=O)[C@@H](CC(C)C)NC(=O)[C@H](CCN)NC(=O)[C@@H](NC(=O)[C@H](CCN)NC(=O)[C@@H](NC(=O)[C@H](CCN)NC(=O)CNC(=O)[C@@H]2CCSSC[C@H](NC(=O)[C@@H](N)Cc3c[nH]c4ccccc34)C(=O)N[C@@H](C(C)C)C(=O)N[C@@H](C)C(=O)N[C@@H](CO)C(=O)N3CCC[C@@H]3C(=O)N3CCC[C@H]3C(=O)N[C@@H](CC(C)C)C(=O)N[C@@H](CO)C(=O)N[C@@H](Cc3ccc(O)cc3)C(=O)N2)[C@@H](C)O)CCNC(=O)[C@H]([C@@H](C)O)NC(=O)[C@H](CCN)NC(=O)[C@H](CCN)NC1=O [Ex. 134] (H-WCVAS[dP]PLSY[hCys]G[Dab]T[Dab][Dab][Dab][dL]L[Dab][Dab]T; disulfide 2-11; lactam 16-C) | <1 | – | 0.125 | – | 0.25 | 1 | – | – | – | – | – | – | – | – | 0.125
5 | CCCC[C@@H]1NC(=O)[C@@H]2CCCN2C(=O)[C@H]2CCCN2C(=O)[C@H](CO)NC(=O)[C@H](C)NC(=O)[C@H](C(C)(C)C)NC(=O)[C@@H](NC(=O)[C@H](Cc2c[nH]c3ccccc23)NC(C)=O)CC(=O)NCC[C@@H](C(=O)N[C@@H](CCCN)C(=O)N[C@@H](CCN)C(=O)N[C@H]2CCNC(=O)[C@H]([C@@H](C)O)NC(=O)[C@H](CCN)NC(=O)[C@H](CCN)NC(=O)[C@H](CC(C)C)NC(=O)[C@@H](Cc3ccccc3)NC(=O)[C@H](CCN)NC2=O)NC(=O)[C@H](Cc2ccc(O)cc2)NC(=O)[C@H](CO)NC1=O [Ex. 56] (Ac-WD[Tle]AS[dP]P[Nle]SY[Dab][Orn][Dab][Dab][Dab][dF]L[Dab][Dab]T; lactam 2-11, 14-C) | – | – | 2 | – | 4 | 4 | – | – | – | – | – | – | – | <1 | 0.5
6 | CC(C)C[C@@H]1NC(=O)[C@@H](CC(C)C)NC(=O)[C@H](CCN)NC(=O)[C@@H](NC(=O)[C@H](CCN)NC(=O)[C@@H](NC(=O)[C@H](CCN)NC(=O)CC[C@@H]2NC(=O)[C@H](CCN)NC(=O)[C@H](Cc3ccc(O)cc3)NC(=O)[C@H]([C@@H](C)O)NC(=O)[C@H](C(C)C)NC(=O)[C@@H]3CCCN3C(=O)[C@H]3CCN3C(=O)[C@H](CO)NC(=O)[C@H](C)NC(=O)[C@H](C(C)(C)C)NC(=O)[C@H](CCN)NC(=O)[C@H](Cc3c[nH]c4ccccc34)NC(=O)[C@H](CCN)NC(=O)[C@@H](CCN)NC2=O)[C@@H](C)O)CCNC(=O)[C@H]([C@@H](C)O)NC(=O)[C@H](CCN)NC(=O)[C@H](CCN)NC1=O [Ex. 101] (I: cyclo(AS[dAze]PVTY[Dab]E[dDab][Dab]W[Dab][Tle]) / II: [Dab]T[Dab][Dab][Dab][dL]L[Dab][Dab]T; amide I:9-II:N; lactam II:4-II:C) | – | – | 2 | – | 1 | 0.25 | – | – | – | – | – | – | – | 4 | 1
7 | CC(C)C[C@@H]1NC(=O)[C@@H](CC(C)C)NC(=O)[C@H](CCN)NC(=O)[C@@H](NC(=O)[C@@H](CCN)NC(=O)[C@@H]2CSSC[C@H](N)C(=O)N[C@@H](Cc3c[nH]c4ccccc34)C(=O)N[C@@H](CCN)C(=O)N[C@@H](C(C)(C)C)C(=O)N[C@@H](C)C(=O)N[C@@H](CO)C(=O)N3CCC[C@@H]3C(=O)N3CCC[C@H]3C(=O)N[C@@H](CC(C)C)C(=O)N[C@@H](CO)C(=O)N[C@@H](Cc3ccc(O)cc3)C(=O)N[C@@H](CCN)C(=O)N(C)CC(=O)N2)CCNC(=O)[C@H]([C@@H](C)O)NC(=O)[C@H](CCN)NC(=O)[C@H](CCN)NC1=O [Ex. 206] (H-CW[Dab][Tle]AS[dP]PLSY[Dab][Sar]C[dDab][Dab][Dab][dL]L[Dab][Dab]T; disulfide 1-14; lactam 16-C) | 1 | – | 4 | – | 1 | 4 | – | – | – | – | – | – | – | – | 0.5
8 | CC(C)C[C@@H]1NC(=O)[C@@H](CC(C)C)NC(=O)[C@H](CCN)NC(=O)[C@@H](NC(=O)[C@H](CCN)NC(=O)[C@@H](NC(=O)[C@H](CCN)NC(=O)CNC(=O)[C@H](CCN)NC(=O)[C@H](Cc2ccc(O)cc2)NC(=O)[C@@H]2CSSC[C@H](NC(=O)[C@@H](NC(=O)[C@H](CCN)NC(=O)[C@@H](N)Cc3c[nH]c4ccccc34)C(C)C)C(=O)N[C@@H](CO)C(=O)N[C@H](C)C(=O)N3C[C@H](O)C[C@H]3C(=O)N[C@@H](CC(C)C)C(=O)N2)[C@@H](C)O)CCNC(=O)[C@H]([C@@H](C)O)NC(=O)[C@H](CCN)NC(=O)[C@H](CCN)NC1=O [Ex. 164] (H-W[Dab]VCS[dA][Hyp]LCY[Dab]G[Dab]T[Dab][Dab][Dab][dL]L[Dab][Dab]T; disulfide 4-9; lactam 16-C) | <1 | – | 0.25 | – | 0.5 | 0.5 | – | – | – | – | – | – | – | – | 0.0625
